Data reported in paper PMC11513893, “Discovery of Oral Degraders of the ROS1 Fusion Protein with Potent Activity against Secondary Resistance Mutations” (Journal of Medicinal Chemistry, 2024).

Experiments:
[1] = test system: Ba/F3 ROS1 D2033N; experiment: Antiproliferation assay; format: cell-based; details: Mus musculus, BaF3; Ba/F3 cells, cell growth inhibition
Excerpt: (§1) To assess targeted degradation of ROS1 fusion proteins, we first established a mouse pro-B cell line Ba/F3 as a model expressing the CD74-ROS1 oncogene or CD74-ROS1 with clinically observed secondary/tertiary mutations. The Ba/F3 cell line is dependent on interleukin-3 for survival and proliferation. Upon transduction of oncogenic ROS1, Ba/F3 cells become independent of interleukin-3 but dependent on the transduced driver gene.
(§2) Ba/F3 immortalized murine bone marrow–derived pro-B cells were obtained from Creative Biogene (Shirley, NY) and cultured in RPMI supplemented with 10% FBS and IL3 (0.5 ng/mL). Ba/F3 cells expressing ROS1 variants were maintained in RPMI supplemented with 10% FBS and puromycin (0.7 mg/mL). […] Each compound was dissolved in DMSO and serially diluted in RPMI for cell culture experiments.
(§3) To assess the 72 h effect of drug treatment on cell proliferation, 2000 to 3000 cells were plated in replicates of three in 96-well plates. The plates were placed in an incubator at 37 °C, 5% CO2 for 72 h. Following drug treatments, the cells were incubated with the Alamar Blue Assay reagent (BioRad), 5 μL each well for 4 h at 37 °C and 5% CO2. Luminescence was measured on a multiplate reader and analyzed. […] IC50 values were determined using a nonlinear regression model with a sigmoidal dose response in GraphPad. The data were collected based on triplicate experiments, and presented as mean ± SD.
(§4) The resulting virus was used to infect Ba/F3 cells. After retroviral infection, Ba/F3 cells were selected by incubation with puromycin (0.7 mg/mL) for 2 weeks. For Ba/F3 cells infected by the CD74–ROS1 variants, IL3 was withdrawn from the culture medium at least 2 weeks before the experiments.

[2] = test system: Ba/F3 ROS1 G2032R-F2075V; experiment: Antiproliferation assay; format: cell-based; details: Mus musculus, BaF3; Ba/F3 cells, cell growth inhibition
Excerpt: as §1, §2, §3, §4

[3] = test system: Ba/F3 ROS1 L2026M; experiment: Antiproliferation assay; format: cell-based; details: Mus musculus, BaF3; Ba/F3 cells, cell growth inhibition
Excerpt: as §1, §2, §3, §4

[4] = Pharmacokinetics study in Sprague–Dawley rats; format: in vivo; details: rat
Description: Four to 6 weeks old Sprague–Dawley rats [Crl: CD (SD)] (SPF/VAF) were purchased from Charles River (Wilmington MA). Animals were quarantined/acclimated for 2–6 weeks prior to dose initiation. Sprague–Dawley rats were given oral administration of test compounds (20% PG, 5% Solutol, and 75% of 20% HP-β-CD in water) at different dose levels. After treatment with the compounds, whole blood was collected from each study animal by puncture of the tail vein (0.4 mL of whole blood from rats) into tubes containing K2EDTA at each time point. The plasma samples were divided into 2 aliquots (approximately equal in volume) and stored frozen at −75 ± 15 °C within 2 h of the collection until analysis.
The stock solution of the test compound (0.01 M) in DMSO was prepared and stored at −20 ± 5 °C. The desired serial concentrations of working reference analyte solutions were achieved by diluting a stock analyte solution with 50% acetonitrile (0.1% formic acid) in water solution. The bioanalytical LC–MS/MS method was developed for quantitative determination of each test compound in Sprague–Dawley rat plasma with acceptable selectivity, sensitivity, calibration curve, precision, and accuracy. The analytical method is applicable for the determination of test compounds in Sprague–Dawley rat plasma with a lower limit of quantification of 10.0 ng/mL and an upper limit of quantification of 5000 ng/mL. Five microliters of diluted supernatant was injected into the LC–MS/MS system (TSQ Quantis) and a SynergiTM 4 μm Fusion-RP 80 Å (50 × 2 mm) column using gradient elution and a Triple Quad mass spectrometer) for quantitative analysis. The mobile phases used were 0.1% formic acid in deionized water and 0.1% formic acid in acetonitrile. The pharmacokinetic parameters T1/2 (the biological half-life), Cmax (maximal concentration), Tmax (time at which Cmax is observed), and AUC (area under the plasma concentration–time curve) were calculated from the plasma concentration versus time data using WinNonlin (PhoenixTM, version 8.1, Mountain View, CA, USA).

[5] = molecular target: ROS1 (L2086F) (Homo sapiens, UniProt P08922, L2086F); experiment: Kinase assay; format: biochemical; details: average of duplicate measurements
[6] = molecular target: T1, FER (Homo sapiens, UniProt P16591); experiment: Kinase assay; format: biochemical; details: average of duplicate measurements
[7] = molecular target: ALK (Homo sapiens, UniProt Q9UM73); experiment: Degradation assay; format: cell-based; details: average of duplicate measurements
Description: (§5) However, the degradation selectivity of 9o often contrasts with its kinase binding selectivity as determined in cells treated with 9o where the kinase level was measurable by Western blot analysis. […] For example, FLT3, CHEK2, and FES, all with kinase binding at <10 nM, were only moderately or minimally degraded, if at all (Table 9).

[8] = molecular target: C-MET (Homo sapiens, UniProt P08581); experiment: Degradation assay; format: cell-based; details: average of duplicate measurements
Description: as §5

[9] = test system: CAMK2D; experiment: Degradation assay; format: cell-based; details: average of duplicate measurements
Description: as §5

[10] = molecular target: CHEK2 (Homo sapiens, UniProt O96017); experiment: Degradation assay; format: cell-based; details: average of duplicate measurements
Description: as §5

[11] = molecular target: CLK1 (Homo sapiens, UniProt P49759); experiment: Degradation assay; format: cell-based; details: average of duplicate measurements
Description: as §5

[12] = molecular target: EGFR (Homo sapiens, UniProt P00533); experiment: Degradation assay; format: cell-based; details: average of duplicate measurements
Description: as §5

[13] = molecular target: ERBB2 (Homo sapiens, UniProt P04626); experiment: Degradation assay; format: cell-based; details: average of duplicate measurements
Description: as §5

[14] = molecular target: ERBB4/HER4 (Homo sapiens, UniProt Q15303); experiment: Degradation assay; format: cell-based; details: average of duplicate measurements
Description: as §5

[15] = molecular target: FAK/PTK2 (Homo sapiens, UniProt Q05397); experiment: Degradation assay; format: cell-based; details: average of duplicate measurements
Description: as §5

[16] = molecular target: T1, FER; experiment: Degradation assay; format: cell-based; details: average of duplicate measurements
Description: as §5

[17] = molecular target: FES (Homo sapiens, UniProt P07332); experiment: Degradation assay; format: cell-based; details: average of duplicate measurements
Description: as §5

[18] = molecular target: FLT3 (Homo sapiens, UniProt P36888); experiment: Degradation assay; format: cell-based; details: average of duplicate measurements
Description: as §5

[19] = molecular target: LTK (Homo sapiens, UniProt P29376); experiment: Degradation assay; format: cell-based; details: average of duplicate measurements
Description: as §5

[20] = molecular target: RET (Homo sapiens, UniProt P07949); experiment: Degradation assay; format: cell-based; details: average of duplicate measurements
Description: as §5

T1 sequence (P16591 whole entry, species assumed): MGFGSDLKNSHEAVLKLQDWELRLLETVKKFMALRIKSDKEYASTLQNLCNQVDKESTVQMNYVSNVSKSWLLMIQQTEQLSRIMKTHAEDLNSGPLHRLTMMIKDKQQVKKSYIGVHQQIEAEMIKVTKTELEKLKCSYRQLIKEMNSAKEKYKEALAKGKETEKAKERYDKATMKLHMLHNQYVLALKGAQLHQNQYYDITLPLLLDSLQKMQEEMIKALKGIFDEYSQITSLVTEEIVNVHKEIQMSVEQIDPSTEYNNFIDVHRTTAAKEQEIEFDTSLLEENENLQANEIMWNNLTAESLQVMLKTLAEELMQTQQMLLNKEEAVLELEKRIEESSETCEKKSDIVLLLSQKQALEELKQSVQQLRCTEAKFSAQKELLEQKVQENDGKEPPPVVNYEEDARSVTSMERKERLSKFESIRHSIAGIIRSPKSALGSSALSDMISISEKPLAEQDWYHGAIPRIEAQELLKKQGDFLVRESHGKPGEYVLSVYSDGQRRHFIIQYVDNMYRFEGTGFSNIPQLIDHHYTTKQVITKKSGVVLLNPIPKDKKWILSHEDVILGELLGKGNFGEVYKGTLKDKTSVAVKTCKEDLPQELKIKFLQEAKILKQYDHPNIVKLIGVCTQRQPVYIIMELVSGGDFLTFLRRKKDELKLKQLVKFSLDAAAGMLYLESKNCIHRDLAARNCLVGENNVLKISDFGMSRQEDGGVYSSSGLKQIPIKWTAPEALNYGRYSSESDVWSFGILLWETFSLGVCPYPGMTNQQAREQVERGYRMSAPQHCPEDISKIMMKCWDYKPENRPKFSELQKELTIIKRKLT
ERBB4/HER4, sequence (Q15303 26-1308): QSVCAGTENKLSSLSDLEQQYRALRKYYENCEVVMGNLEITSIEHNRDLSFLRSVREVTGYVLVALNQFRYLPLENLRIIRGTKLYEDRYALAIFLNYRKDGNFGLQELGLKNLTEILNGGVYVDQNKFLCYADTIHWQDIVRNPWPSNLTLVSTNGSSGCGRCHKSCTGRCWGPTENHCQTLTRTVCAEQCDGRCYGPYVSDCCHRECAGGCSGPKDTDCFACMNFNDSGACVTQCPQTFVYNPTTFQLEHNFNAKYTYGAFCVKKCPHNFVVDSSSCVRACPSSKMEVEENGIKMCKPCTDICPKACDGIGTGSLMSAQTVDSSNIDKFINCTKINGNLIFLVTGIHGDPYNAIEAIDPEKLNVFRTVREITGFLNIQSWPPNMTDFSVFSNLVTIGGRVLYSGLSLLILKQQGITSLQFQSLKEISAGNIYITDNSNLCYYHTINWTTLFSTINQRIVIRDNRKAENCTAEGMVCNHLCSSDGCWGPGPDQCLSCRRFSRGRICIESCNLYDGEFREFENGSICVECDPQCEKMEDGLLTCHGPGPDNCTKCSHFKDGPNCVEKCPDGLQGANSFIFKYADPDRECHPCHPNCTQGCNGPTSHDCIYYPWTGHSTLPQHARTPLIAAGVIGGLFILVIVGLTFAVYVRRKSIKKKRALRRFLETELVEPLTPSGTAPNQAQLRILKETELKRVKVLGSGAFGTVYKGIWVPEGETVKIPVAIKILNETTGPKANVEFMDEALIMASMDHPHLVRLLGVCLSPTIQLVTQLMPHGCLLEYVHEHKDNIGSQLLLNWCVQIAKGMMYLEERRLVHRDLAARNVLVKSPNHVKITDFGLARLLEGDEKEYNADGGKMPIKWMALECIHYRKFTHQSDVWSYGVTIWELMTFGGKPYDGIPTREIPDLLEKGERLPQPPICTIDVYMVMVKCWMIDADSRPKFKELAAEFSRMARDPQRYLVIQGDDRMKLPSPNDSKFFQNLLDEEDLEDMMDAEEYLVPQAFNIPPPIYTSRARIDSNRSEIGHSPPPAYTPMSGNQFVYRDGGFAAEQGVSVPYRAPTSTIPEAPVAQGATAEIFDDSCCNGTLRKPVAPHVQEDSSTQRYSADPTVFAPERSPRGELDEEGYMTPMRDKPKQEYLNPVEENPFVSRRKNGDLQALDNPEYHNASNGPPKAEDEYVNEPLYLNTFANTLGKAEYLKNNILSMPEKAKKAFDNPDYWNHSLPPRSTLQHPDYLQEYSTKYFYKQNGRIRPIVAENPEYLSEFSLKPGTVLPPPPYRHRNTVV
ERBB2, sequence (P04626 23-1255, species assumed): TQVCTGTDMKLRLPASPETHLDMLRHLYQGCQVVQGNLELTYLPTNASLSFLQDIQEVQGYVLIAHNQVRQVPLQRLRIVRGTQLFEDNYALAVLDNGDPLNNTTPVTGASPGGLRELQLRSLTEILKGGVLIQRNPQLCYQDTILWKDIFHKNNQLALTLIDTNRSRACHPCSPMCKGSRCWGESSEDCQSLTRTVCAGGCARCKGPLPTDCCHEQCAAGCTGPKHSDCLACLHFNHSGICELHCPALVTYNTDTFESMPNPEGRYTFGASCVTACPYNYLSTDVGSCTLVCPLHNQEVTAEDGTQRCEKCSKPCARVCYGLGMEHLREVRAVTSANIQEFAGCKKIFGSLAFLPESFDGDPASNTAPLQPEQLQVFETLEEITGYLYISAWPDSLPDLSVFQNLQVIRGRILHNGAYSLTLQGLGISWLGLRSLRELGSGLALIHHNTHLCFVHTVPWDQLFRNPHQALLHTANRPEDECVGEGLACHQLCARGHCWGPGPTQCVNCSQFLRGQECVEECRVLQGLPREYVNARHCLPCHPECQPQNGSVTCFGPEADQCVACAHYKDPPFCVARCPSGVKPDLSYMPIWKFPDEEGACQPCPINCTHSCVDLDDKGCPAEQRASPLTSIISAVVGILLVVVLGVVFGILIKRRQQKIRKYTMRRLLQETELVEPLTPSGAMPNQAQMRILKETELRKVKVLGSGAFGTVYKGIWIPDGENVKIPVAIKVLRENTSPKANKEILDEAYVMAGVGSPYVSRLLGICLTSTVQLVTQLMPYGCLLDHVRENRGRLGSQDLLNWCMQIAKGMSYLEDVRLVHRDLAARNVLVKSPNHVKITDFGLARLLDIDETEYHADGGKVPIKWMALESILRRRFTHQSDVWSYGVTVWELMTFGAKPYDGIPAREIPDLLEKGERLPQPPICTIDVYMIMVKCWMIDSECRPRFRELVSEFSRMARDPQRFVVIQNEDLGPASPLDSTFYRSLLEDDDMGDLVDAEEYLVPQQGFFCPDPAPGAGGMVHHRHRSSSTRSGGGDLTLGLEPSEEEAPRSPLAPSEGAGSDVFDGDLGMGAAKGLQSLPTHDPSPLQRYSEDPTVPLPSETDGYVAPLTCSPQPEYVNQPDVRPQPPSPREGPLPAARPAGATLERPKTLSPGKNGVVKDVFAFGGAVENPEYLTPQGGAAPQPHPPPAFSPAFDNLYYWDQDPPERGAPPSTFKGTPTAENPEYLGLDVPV
C-MET, sequence (P08581 25-1390): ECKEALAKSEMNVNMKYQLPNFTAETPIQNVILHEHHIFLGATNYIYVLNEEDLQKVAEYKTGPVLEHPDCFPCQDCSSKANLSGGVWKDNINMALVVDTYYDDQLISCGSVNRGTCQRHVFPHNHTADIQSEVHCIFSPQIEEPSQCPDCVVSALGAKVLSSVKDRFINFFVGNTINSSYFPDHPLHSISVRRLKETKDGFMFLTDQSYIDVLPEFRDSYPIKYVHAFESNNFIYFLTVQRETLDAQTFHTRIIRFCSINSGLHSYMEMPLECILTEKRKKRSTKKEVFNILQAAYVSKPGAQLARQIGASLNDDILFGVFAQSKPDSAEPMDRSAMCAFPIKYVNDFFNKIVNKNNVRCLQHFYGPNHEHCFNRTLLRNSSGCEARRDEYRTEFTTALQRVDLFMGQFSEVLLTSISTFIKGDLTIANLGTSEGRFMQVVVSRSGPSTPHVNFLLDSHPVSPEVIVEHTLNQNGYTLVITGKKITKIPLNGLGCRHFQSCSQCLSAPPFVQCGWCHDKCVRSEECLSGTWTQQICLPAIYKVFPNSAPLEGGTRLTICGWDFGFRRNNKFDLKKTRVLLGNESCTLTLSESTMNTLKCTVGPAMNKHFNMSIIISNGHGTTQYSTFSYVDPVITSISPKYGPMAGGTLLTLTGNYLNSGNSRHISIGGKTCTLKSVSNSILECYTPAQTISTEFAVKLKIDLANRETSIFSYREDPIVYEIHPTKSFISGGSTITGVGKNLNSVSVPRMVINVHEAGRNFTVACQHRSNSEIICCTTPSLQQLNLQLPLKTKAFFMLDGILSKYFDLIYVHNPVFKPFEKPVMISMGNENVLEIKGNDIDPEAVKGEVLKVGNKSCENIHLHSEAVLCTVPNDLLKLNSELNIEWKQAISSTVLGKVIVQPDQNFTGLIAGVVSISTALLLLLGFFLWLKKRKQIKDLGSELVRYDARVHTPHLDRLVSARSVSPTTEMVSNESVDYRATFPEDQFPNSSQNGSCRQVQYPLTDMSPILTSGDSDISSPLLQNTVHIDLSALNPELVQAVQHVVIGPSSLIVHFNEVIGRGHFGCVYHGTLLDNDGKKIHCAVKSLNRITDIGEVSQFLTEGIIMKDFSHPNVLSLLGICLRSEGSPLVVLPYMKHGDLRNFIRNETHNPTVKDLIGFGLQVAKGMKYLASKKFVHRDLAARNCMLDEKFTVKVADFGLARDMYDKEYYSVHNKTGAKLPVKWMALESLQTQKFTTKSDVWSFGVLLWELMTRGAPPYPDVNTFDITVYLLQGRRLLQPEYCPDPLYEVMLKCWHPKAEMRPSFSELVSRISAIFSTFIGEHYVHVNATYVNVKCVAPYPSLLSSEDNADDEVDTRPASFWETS

With `COc1cc(N2CCC(N3CCN(CC4CCN(c5ccc6c(c5)CN(C5CCC(=O)NC5=O)C6=O)CC4)CC3)CC2)ccc1Nc1ncc(Cl)c(Nc2ccccc2P(C)(C)=O)n1` (stereo not drawn) [9o, 3-(5-(4-((4-(1-(4-((5-Chloro-4-((2-(dimethylphosphoryl)phenyl)amino)pyrimidin-2-yl)amino)-3-methoxyphenyl)piperidin-4-yl)piperazin-1-yl)methyl)piperidin-1-yl)-1-oxoisoindolin-2-yl)piperidine-2,6-dione] the IC50 [1] was 9.6 nM, the IC50 [2] was 5.6 nM and the IC50 [3] was 2.5 nM. For the same compound, the Cmax at 24 h ([4]; Sprague-Dawley [Crl: CD (SD)], plasma, 5 mg/kg po) was 94 ng/mL, the bioavailability ([4]; Sprague-Dawley [Crl: CD (SD)], plasma, 5 mg/kg po vs 0.5 mg/kg iv) was 7.3% and the “AUC (po)” value ([4]; 5 mg/kg po) was 1267 ng·h/mL. For the same compound, the T1/2 ([4]; 5 mg/kg po) was 7.32 h, the Tmax ([4]; 5 mg/kg po) was 2 h and the IC50 [5] was 218 nM. For the same compound, the IC50 [6] was 3.1 nM, the DC50 [7] was 1.7 nM and the DC50 [8] was greater than 1000 nM. It also gave a DC50 [9] of 264 nM, a DC50 [10] of 187 nM and a DC50 [11] greater than 1000 nM. For the same compound, the DC50 [12] was 255 nM, the DC50 [13] was 474 nM and the DC50 [14] was greater than 1000 nM. For the same compound, the DC50 [15] was 1.5 nM, the DC50 [16] was 17 nM and the DC50 [17] was 320 nM. For the same compound, the DC50 [18] was greater than 1000 nM, the DC50 [19] was greater than 1000 nM and the DC50 [20] was 58 nM.
